For seven molecules, GI50 and TGI results are on record in PubChem BioAssay (NCI).

Where “and” joins values, the source holds several entries; their conditions need not be identical. Identical values can stand only once.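 Growth conditions: 96-well plates. Treatment: test compound, 48 hours, 5 concentrations. Analysis: linear interpolation between bracketing concentrations; unreached endpoints set to highest concentration. Here, GI50 denotes the concentration required for 50% inhibition of growth. TGI denotes the concentration required for complete inhibition of growth.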

Test systems include MCF7 breast; SF-268 CNS; HT29 colon; 786-0 renal; KM12 colon; EKVX NSCLC; SK-MEL-5 melanoma; DU-145 prostate; RPMI-8226 leukemia; A549 NSCLC.
Holding throughout (assay): DTP human tumour cell line panel, 48 h

A word on the GI50: it is the concentration giving 50% growth inhibition. As usually defined, the TGI is the concentration at which net growth stops. For `COc1cc(OC)c(NC(=O)c2cc3ccccc3cc2O)cc1Cl`, the GI50 in the experiment with MCF7 breast was 2.51 µM; with SF-268 CNS, 3.66 µM; with HT29 colon it was 4.88 µM; with 786-0 renal it was 4.51 µM; with KM12 colon it was 3.07 µM; with EKVX NSCLC, 2.22 µM. Moreover, the GI50 in the experiment with SK-MEL-5 melanoma is 2.4 µM; with DU-145 prostate it was 3.72 µM; in the experiment on RPMI-8226 leukemia, 2.82 µM; with A549 NSCLC it was 3.38 µM. Also, the TGI was 9.08 µM in the experiment with MCF7 breast; 33.4 µM in the experiment with SF-268 CNS; 30.1 µM in the experiment on HT29 colon; over 100 µM with 786-0 renal; 11.4 µM in the experiment on KM12 colon; 28 µM with EKVX NSCLC. Further, the total growth inhibition concentration (TGI) with SK-MEL-5 melanoma was determined as 6.34 µM; in the experiment on DU-145 prostate it was 38.2 µM; with RPMI-8226 leukemia, 10.9 µM; in the experiment on A549 NSCLC it was 10.5 µM.

Take `CC1=C([Te]c2ccc(O)cc2)C(=O)c2ccccc2C1=O`: the GI50 in the experiment on MCF7 breast is 1.49 µM; with SF-268 CNS, 2.63 µM; with HT29 colon it was 0.396 µM; with 786-0 renal, 2.61 µM; in the experiment on KM12 colon it was 1.3 µM; with EKVX NSCLC, 0.428 µM. Also, the GI50 is 1.53 µM in the experiment on SK-MEL-5 melanoma, 2.32 µM in the experiment with DU-145 prostate, 1.16 µM in the experiment with RPMI-8226 leukemia and 0.404 µM in the experiment with A549 NSCLC. The TGI turned out to be 4.08 µM in the experiment with MCF7 breast; 9.03 µM in the experiment on SF-268 CNS; 1.55 µM with HT29 colon; 7.88 µM with 786-0 renal; 3.27 µM in the experiment with KM12 colon; 6.58 µM in the experiment with EKVX NSCLC. In addition, the TGI with SK-MEL-5 melanoma is 2.92 µM; in the experiment with DU-145 prostate, 6.02 µM; with RPMI-8226 leukemia, 4.51 µM; with A549 NSCLC, 4.18 µM.

`COc1ccc2c(c1OC)OCC(CN(C)C)C2=O` (stereo not given): the TGI with MCF7 breast was determined as 27.5 µM; in the experiment with SF-268 CNS, 53.2 µM; in the experiment with HT29 colon, 40.1 µM; with 786-0 renal, 25.9 µM; in the experiment on KM12 colon, 33.9 µM; in the experiment with EKVX NSCLC, 49.9 µM. Moreover, the TGI is 31.6 µM with SK-MEL-5 melanoma, 34.5 µM with DU-145 prostate, 8.56 µM in the experiment with RPMI-8226 leukemia and over 63.9 µM with A549 NSCLC.

Regarding `C[C@H]1[C@H]2[C@H]3CC[C@@H]4[C@@]5(C)C/C(=C/c6cccnc6)C(=O)C(C)(C)[C@@H]5CC[C@@]4(C)[C@]3(C)CC[C@]23CO[C@]1(C)[C@@H](C(=O)/C=C\c1cccnc1)C3`, the GI50 was 0.842 µM in the experiment on MCF7 breast; 1.27 µM in the experiment on SF-268 CNS; 1.16 µM in the experiment with HT29 colon; 0.905 µM in the experiment on 786-0 renal; 0.892 µM in the experiment on KM12 colon; 1.56 µM in the experiment on EKVX NSCLC. Besides, the GI50 in the experiment on SK-MEL-5 melanoma is 0.836 µM; in the experiment on DU-145 prostate, 0.923 µM; with RPMI-8226 leukemia, 0.255 µM; in the experiment with A549 NSCLC, 1.22 µM. The TGI turned out to be 6.25 µM in the experiment on MCF7 breast; 4.17 µM with SF-268 CNS; 3.73 µM in the experiment on HT29 colon; 1.95 µM in the experiment with 786-0 renal; 1.86 µM in the experiment on KM12 colon; 6.4 µM with EKVX NSCLC. The TGI with SK-MEL-5 melanoma stood at 1.54 µM; in the experiment with DU-145 prostate, 1.71 µM; in the experiment with RPMI-8226 leukemia it was 2.26 µM; in the experiment with A549 NSCLC, 3.29 µM.

Regarding `O=C(NCc1ccco1)c1ccc(NC2=C(Cl)C(=O)N(Cc3ccccc3)C2=O)cc1`, the GI50 in the experiment on MCF7 breast is 3.91 µM; in the experiment on SF-268 CNS, 17.8 µM; in the experiment with HT29 colon it was 35 µM; with 786-0 renal it was 12.6 µM; in the experiment with KM12 colon it was 17.2 µM; with EKVX NSCLC, 31.2 µM. Further, the GI50 is 27.4 µM in the experiment with SK-MEL-5 melanoma, 15.8 µM with DU-145 prostate, 8.52 µM in the experiment on RPMI-8226 leukemia and 37.2 µM with A549 NSCLC. The TGI with MCF7 breast is 23.8 µM; in the experiment with SF-268 CNS, 54.1 µM; in the experiment on HT29 colon it was over 100 µM; in the experiment with 786-0 renal, 28.2 µM; with KM12 colon, 36.2 µM; in the experiment with EKVX NSCLC, 72.5 µM. The TGI was 73.4 µM in the experiment with SK-MEL-5 melanoma, 29.2 µM in the experiment with DU-145 prostate, 23.6 µM in the experiment with RPMI-8226 leukemia and over 100 µM in the experiment on A549 NSCLC.

Turning to `CCc1cc2c(cc1N1CCC(N3CCOCC3)CC1)C(C)(C)c1[nH]c3cc(C#N)ccc3c1C2=O`, the GI50 with MCF7 breast was 1.66 µM and 1.64 µM and 1.34 µM; in the experiment on SF-268 CNS it was 1.57 µM and 1.54 µM and 1.92 µM; with HT29 colon it was 0.758 µM and 0.853 µM and 1.51 µM; in the experiment with 786-0 renal, 1.87 µM and 1.71 µM; in the experiment with KM12 colon it was 0.336 µM and 0.345 µM and 0.347 µM; in the experiment on EKVX NSCLC it was 1.56 µM and 2.04 µM. Besides, the GI50 was 1.12 µM and 1.5 µM and 3 µM in the experiment with SK-MEL-5 melanoma; 1.67 µM and 1.46 µM and 1.95 µM in the experiment with DU-145 prostate; 0.549 µM and 0.415 µM and 0.497 µM in the experiment on RPMI-8226 leukemia; 1.36 µM and 1.51 µM and 1.31 µM in the experiment on A549 NSCLC. The TGI with MCF7 breast was > 23.8 µM and 15.6 µM and > 10 µM; with SF-268 CNS it was 4.02 µM and 3.97 µM and 5.47 µM; with HT29 colon it was 2.54 µM and 3.42 µM and > 10 µM; in the experiment with 786-0 renal, 4.01 µM and 3.76 µM and 3.46 µM; with KM12 colon, 5.36 µM and 3.41 µM and > 10 µM; in the experiment with EKVX NSCLC, 6.85 µM and > 10 µM. Further, the TGI is 19.2 µM and 14.2 µM and > 10 µM in the experiment with SK-MEL-5 melanoma; 5.96 µM and 3.52 µM and 7.19 µM in the experiment with DU-145 prostate; 8.9 µM and > 10 µM in the experiment on RPMI-8226 leukemia; 3.05 µM and 3.88 µM and 3.67 µM in the experiment with A549 NSCLC.

On to `CCCCCCCCCCCCOC1C(C(CC(=O)N2CCN(c3cccc(C(F)(F)F)c3)CC2)NS(=O)(=O)c2cc(Cl)cc(Cl)c2)OC2OC(C)(C)OC21` (stereo not given), for which the GI50 in the experiment on MCF7 breast, in the experiment with SF-268 CNS, in the experiment with HT29 colon, in the experiment with 786-0 renal, in the experiment with KM12 colon and with EKVX NSCLC was over 100 µM each time. Also, the GI50 in the experiment on SK-MEL-5 melanoma, in the experiment on DU-145 prostate, in the experiment on RPMI-8226 leukemia and in the experiment with A549 NSCLC was over 100 µM throughout. Further, the TGI in the experiment on MCF7 breast, in the experiment with SF-268 CNS, in the experiment on HT29 colon, with 786-0 renal, in the experiment on KM12 colon and in the experiment on EKVX NSCLC was over 100 µM each time. Besides, the TGI in the experiment with SK-MEL-5 melanoma, in the experiment on DU-145 prostate, with RPMI-8226 leukemia and in the experiment with A549 NSCLC was over 100 µM each time.
